Laboratory results taken from paper PMC10435442, “Developing multitarget coumarin based anti-breast cancer agents: synthesis and molecular modeling study” (Scientific Reports, 2023).
≈ marks a conversion by molar mass, not a printed value. Where “and” joins values, the source holds several entries; their conditions need not be identical. Equal entries are not always repeated. Where two headings read alike, the source gives them in different places.

Tests used:
Bcl-2 = Bcl-2 level (ELISA) in treated cells; format: cell-based, human; settings: for BCL2 conc.: MDA cells (MDA-MB-231) treated with the compound, cont.MDA 10.83±0.046; for Bcl-2 Conc. (single wells) / Bcl-2 Conc. (Average) / BCL2 FLD (fold vs control): MDA cells (MDA-MB-231); for Bcl-2 Conc. (single wells) / Bcl-2 Conc. (Average): Bcl-2 ELISA, control 10.83; for Bcl-2 Conc. (single wells): duplicate wells; for Bcl-2 Conc. (Average): mean of 2 wells; for BCL2 FLD (fold vs control): cont.MDA = 1
Bax = Bax level (ELISA) in treated cells; format: cell-based, human; settings: for Bax Conc. (Average) / BAX / BAX FLD: MDA; for Bax Conc. (Average): ELISA backfit, duplicate wells; for BAX: cell culture supernatant; for BAX FLD: fold vs cont.MDA = 1
Caspase-9 = Caspase-9 level (ELISA) in treated cells; format: cell-based, human; settings: for Casp9: MDA cells (MDA-MB-231) treated with the compound, cont.MDA 2.611±0.19; for Caspase 9 Conc. (single wells) / Casp9 FLD (fold vs control): MDA cells (MDA-MB-231); for Caspase 9 Conc. (single wells): caspase9 ELISA, duplicate wells, control 4.084; for Casp9 FLD (fold vs control): cont.MDA = 1
MDA-MB-231 [1] = test: MTT cytotoxicity assay, MDA-MB-231; settings: for IC50: Homo sapiens; for % viability: MDA
MCF-10A = test: MTT cytotoxicity assay, nonmalignant MCF-10A; settings: read-out: MCF-10A IC50; MTT, nonmalignant MCF-10A;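 further: MTT assay with absorbance read at 570 nm after 48 h exposure of cells to serial compound concentrations at 37 °C, testing selectivity against nonmalignant versus cancer cells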
in vitro = settings: human, MCF-10A cells (nonmalignant breast)
MCF-7 = test: MTT cytotoxicity assay, MCF-7; settings: for IC50: Homo sapiens
EGFR = EGFR (Homo sapiens, UniProt P00533); test: In vitro EGFR enzyme inhibition assay (ELISA)
MDA-MB-231 [2] = test: Annexin V-FITC/PI dual staining apoptosis assay, MDA-MB-231; format: cell-based, human
MDA-MB-231 [3] = test: DNA flow cytometric cell cycle analysis, MDA-MB-231; format: cell-based, human
[4] = MDA-MB-231, read-out: MDA-MBA-231 IC50
[5] = MDA-MB-231, read-out: cytotoxicity_IC50 MDA
[6] = MCF7, read-out: cytotoxicity_IC50 mcf7
[7] = MDA-MB-231, compared to control

Sequence of EGFR (P00533 25-1210): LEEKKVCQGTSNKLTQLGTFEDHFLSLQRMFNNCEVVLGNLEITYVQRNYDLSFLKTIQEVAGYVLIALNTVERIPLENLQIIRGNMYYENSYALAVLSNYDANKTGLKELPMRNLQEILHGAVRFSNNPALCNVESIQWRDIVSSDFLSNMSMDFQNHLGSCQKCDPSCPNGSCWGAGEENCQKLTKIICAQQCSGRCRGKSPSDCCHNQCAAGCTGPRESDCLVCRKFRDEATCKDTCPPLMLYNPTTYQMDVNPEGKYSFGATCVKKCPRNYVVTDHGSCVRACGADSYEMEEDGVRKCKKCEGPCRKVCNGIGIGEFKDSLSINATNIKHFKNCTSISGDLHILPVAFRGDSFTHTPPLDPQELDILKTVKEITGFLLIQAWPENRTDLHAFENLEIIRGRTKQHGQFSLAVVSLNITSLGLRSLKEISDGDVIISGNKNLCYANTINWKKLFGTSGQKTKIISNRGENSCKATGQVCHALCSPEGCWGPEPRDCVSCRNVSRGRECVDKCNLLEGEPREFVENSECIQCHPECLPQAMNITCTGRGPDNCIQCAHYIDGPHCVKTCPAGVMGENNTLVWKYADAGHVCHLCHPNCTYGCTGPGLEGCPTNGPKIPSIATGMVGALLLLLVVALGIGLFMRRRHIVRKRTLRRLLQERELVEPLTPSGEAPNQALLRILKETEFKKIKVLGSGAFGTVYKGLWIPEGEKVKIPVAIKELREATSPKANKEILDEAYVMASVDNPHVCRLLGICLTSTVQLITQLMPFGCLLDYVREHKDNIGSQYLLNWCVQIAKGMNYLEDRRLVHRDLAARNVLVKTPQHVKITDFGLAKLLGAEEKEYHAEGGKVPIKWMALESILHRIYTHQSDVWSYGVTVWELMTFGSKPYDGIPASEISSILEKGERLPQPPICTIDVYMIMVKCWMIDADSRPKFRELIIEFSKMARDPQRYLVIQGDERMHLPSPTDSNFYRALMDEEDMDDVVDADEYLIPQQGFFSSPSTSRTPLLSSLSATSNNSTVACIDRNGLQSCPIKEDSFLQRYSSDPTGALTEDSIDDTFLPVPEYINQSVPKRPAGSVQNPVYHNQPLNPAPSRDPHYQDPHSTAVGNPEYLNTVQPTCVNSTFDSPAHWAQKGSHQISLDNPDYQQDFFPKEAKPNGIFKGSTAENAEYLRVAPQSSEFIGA

In the case of `COc1ccccc1C(=O)OCc1cc(=O)oc2cc(OCC(=O)c3ccc(Cl)cc3)ccc12` [s12], the BCL2 conc. (Bcl-2) is reported as 2.934 ± 0.154 ng/mL, the “Bcl-2 Conc. (single wells)” value (Bcl-2) is reported as 2.826 ng/mL and 3.043 ng/mL and the “Bcl-2 Conc. (Average)” value (Bcl-2) is reported as 2.934 ng/mL. For the same compound, the “BCL2 FLD (fold vs control)” value (Bcl-2) was 0.271, the “Bax Conc. (Average)” value (Bax) was 360.4 pg/mL and the BAX (Bax) was 360.4 ± 11.8 pg/mL. The “BAX FLD” value (Bax) was 5.22, the Casp9 (Caspase-9) was 19.16 ± 0.41 ng/mL and the “Caspase 9 Conc. (single wells)” value (Caspase-9) was 21.43 ng/mL and 21.56 ng/mL. The “Casp9 FLD (fold vs control)” value (Caspase-9) was 7.34.
For `COc1ccccc1C(=O)OCc1cc(=O)oc2cc(OCC(=O)c3ccccc3)ccc12` [Compound 11, [2-Oxo-7-(2-oxo-2-phenylethoxy)-2H-chromen-4-yl]methyl 2-methoxybenzoate], the IC50 (MDA-MB-231 [1]; [4]) was 61.2 ± 1.48 µM, the IC50 (MDA-MB-231 [1]; [5]) was 27.2 ± 1.48 µg/mL and the “% viability” value (MDA-MB-231 [1]; 0.4ug (log conc. -0.41)) was 73.69%. For the same compound, the “% viability” value (MDA-MB-231 [1]; 1.6ug (log conc. 0.19)) was 66.71%, the “% viability” value (MDA-MB-231 [1]; 6.25ug (log conc. 0.8)) was 58.055% and the “% viability” value (MDA-MB-231 [1]; 25ug (log conc. 1.4)) was 52.2673%. The “% viability” value (MDA-MB-231 [1]; 100ug (log conc. 2)) was 41.289%, the “anti-proliferative activity against MDA-MB-231 (in words)” value (MDA-MB-231 [1]; SAR discussion) was “poor anti-proliferative activity” and the IC50 (MCF-10A) was 178 ± 3.86 µM. For the same compound, the IC50 at 48 h (in vitro) was 79.2 ± 3.86 µg/mL (≈ 178 µM), the viability at 48 h, 0.4 ug (in vitro) was 84.2% and the viability at 48 h, 1.6 ug (in vitro) was 76.6%. For the same compound, the viability at 48 h, 6.25 ug (in vitro) was 66.5%, the viability at 48 h, 25 ug (in vitro) was 58.4% and the viability at 48 h, 100 ug (in vitro) was 47.8%. For the same compound, the IC50 (MCF-7; MCF7, read-out: MCF-7 IC50) was 131 ± 3.52 µM, the IC50 (MCF-7; [6]) was 58.1 ± 3.52 µg/mL and the “% viability” value (MCF-7; MCF7, 0.4ug) was 86.03%. The “% viability” value (MCF-7; MCF7, 1.6ug) was 75.27%, the “% viability” value (MCF-7; MCF7, 6.3ug) was 65.137% and the “% viability” value (MCF-7; MCF7, 25ug) was 57.0548%. The “% viability” value (MCF-7; MCF7, 100ug) was 45.822%, the “anti-proliferative activity against MCF-7 (in words)” value (MCF-7; SAR discussion) was “diminished the activity” and the IC50 (EGFR; EGFR IC50, lab report 01-09-2021, 04 compounds, reference Erlotinib) was 1.83 µM. For the same compound, the IC50 (EGFR; EGFR inhibition IC50) was 1.83 ± 0.038 µM, the inhibition at 10 pg/mL (EGFR; read-out: EGFR %inh) was 7.8% and the inhibition at 0.0001 µg/mL (EGFR; read-out: EGFR %inh) was 23%. For the same compound, the inhibition at 0.001 µg/mL (EGFR; read-out: EGFR %inh) was 54%, the inhibition at 0.01 µg/mL (EGFR; read-out: EGFR %inh) was 76% and the “Percentage above Reference IC50 (potency relative to erlotinib)” value (EGFR; reference Erlotinib) was 7.91%.
For `O=C(COc1ccc2c(COC(=O)c3ccc(Cl)cc3)cc(=O)oc2c1)c1ccc(Cl)cc1` [Compound 10, {7-[2-(4-Chlorophenyl)-2-oxoethoxy]-2-oxo-2H-chromen-4-yl}methyl 4-chlorobenzoate], the IC50 (MDA-MB-231 [1]; [4]) was 2.3 ± 0.06 µM, the IC50 (MDA-MB-231 [1]; [5]) was 1.09 ± 0.06 µg/mL and the “% viability” value (MDA-MB-231 [1]; 0.4ug (log conc. -0.41)) was 56.384%. For the same compound, the “% viability” value (MDA-MB-231 [1]; 1.6ug (log conc. 0.19)) was 47.375%, the “% viability” value (MDA-MB-231 [1]; 6.25ug (log conc. 0.8)) was 40.274% and the “% viability” value (MDA-MB-231 [1]; 25ug (log conc. 1.4)) was 30.609%. The “% viability” value (MDA-MB-231 [1]; 100ug (log conc. 2)) was 23.5084%, the “Bcl-2 Conc” value (Bcl-2; MDA-MB-231 cells) was 4.088±0.058^cf ng/ml and the “Apoptosis Early” value (MDA-MB-231 [2]; MDA) was 9.61. For the same compound, the “Apoptosis Late” value (MDA-MB-231 [2]; MDA) was 17.83, the “Apoptosis Total” value (MDA-MB-231 [2]; MDA) was 33.43 and the Necrosis (MDA-MB-231 [2]; MDA) was 5.99. The “% Apoptosis Early” value (MDA-MB-231 [2]; MDA-MB-231) was 9.61^df %, the “% Apoptosis Late” value (MDA-MB-231 [2]; MDA-MB-231) was 17.83^df % and the “% Apoptosis Total” value (MDA-MB-231 [2]; MDA-MB-231) was 33.43% and 33.43^df %. The “% Necrosis” value (MDA-MB-231 [2]; MDA-MB-231) was 5.99%, the “Bax Conc” value (Bax; MDA-MB-231 cells) was 0.249±0.0079^be ng/ml and the IC50 (MCF-10A) was 76.8 ± 1.81 µM. It also gave an IC50 at 48 h (in vitro) of 37.1 ± 1.81 µg/mL (≈ 76.8 µM), a viability at 48 h, 0.4 ug (in vitro) of 82.6% and a viability at 48 h, 1.6 ug (in vitro) of 69.1%. For the same compound, the viability at 48 h, 6.25 ug (in vitro) was 61.1%, the viability at 48 h, 25 ug (in vitro) was 52.6% and the viability at 48 h, 100 ug (in vitro) was 44.4%. The “Caspase-9 Conc.” value (Caspase-9; MDA-MB-231 cells) was 16.77±0.37^be ng/ml, the IC50 (MCF-7; MCF7, read-out: MCF-7 IC50) was 95.8 ± 2.81 µM and the IC50 (MCF-7; [6]) was 46.3 ± 2.81 µg/mL. For the same compound, the “% viability” value (MCF-7; MCF7, 0.4ug) was 85.616%, the “% viability” value (MCF-7; MCF7, 1.6ug) was 73.288% and the “% viability” value (MCF-7; MCF7, 6.3ug) was 64.521%. The “% viability” value (MCF-7; MCF7, 25ug) was 54.315%, the “% viability” value (MCF-7; MCF7, 100ug) was 44.863% and the IC50 (EGFR; EGFR IC50, lab report 01-11-2021, 10 compounds) was 0.0869 µM. For the same compound, the IC50 (EGFR; EGFR inhibition IC50) was 0.086 ± 0.006 µM, the “Percentage above Reference IC50 (potency relative to erlotinib)” value (EGFR; reference Erlotinib) was 97.67% and 97.674% and the “Comment (cell cycle phase of growth arrest)” value (MDA-MB-231 [3]; MDA) was “cell growth arrest@ S”. The “DNA content %G0-G1” value (MDA-MB-231 [3]; MDA) was 51.97%, the “DNA content %Pre-G1” value (MDA-MB-231 [3]; MDA) was 33.43% and the “DNA content %S” value (MDA-MB-231 [3]; MDA) was 43.82%. For the same compound, the “%G0-G1” value (MDA-MB-231 [3]; MDA-MB-231, IC50 concentration) was 51.97^ad ^AC %, the “%Pre-G1” value (MDA-MB-231 [3]; MDA-MB-231, IC50 concentration) was 33.43^bdf ^AB % and the “%S” value (MDA-MB-231 [3]; MDA-MB-231, IC50 concentration) was 43.82^bc ^D %. For the same compound, the “cell cycle arrest at S phase” value (MDA-MB-231 [3]; [7]) was 1.59 folds and the “increase of apoptotic cells in pre-G1 phase” value (MDA-MB-231 [3]; [7]) was 16.22 folds.
With `O=C(COc1ccc2c(COC(=O)c3ccc(Cl)cc3)cc(=O)oc2c1)c1ccc(Cl)cc1` [s10] the BCL2 conc. (Bcl-2) was 4.088 ± 0.058 ng/mL, the “Bcl-2 Conc. (single wells)” value (Bcl-2) was 4.046 ng/mL and 4.129 ng/mL and the “Bcl-2 Conc. (Average)” value (Bcl-2) was 4.088 ng/mL. For the same compound, the “BCL2 FLD (fold vs control)” value (Bcl-2) was 0.377, the “Bax Conc. (Average)” value (Bax) was 248.9 pg/mL and the BAX (Bax) was 248.9 ± 7.88 pg/mL. For the same compound, the “BAX FLD” value (Bax) was 3.6, the Casp9 (Caspase-9) was 16.77 ± 0.37 ng/mL and the “Caspase 9 Conc. (single wells)” value (Caspase-9) was 18.48 ng/mL and 17.62 ng/mL. The “Casp9 FLD (fold vs control)” value (Caspase-9) was 6.42.
